Earlier results in patent US8529939B2, “Mucoadhesive drug delivery devices and methods of making and using thereof” (Gel-Del Technologies, Inc., priority 2003, dated 2013).

[1] = contact time 30 s, previous study

SMILES: OC[C@@H](O)[C@@H](O)[C@H](O)[C@H](O)CO [Mannitol, mannitol]
- tensile stress [1]: 0.017 N/cm^2
- tensile work [1]: 0.015 mJ/cm^2
- bioadhesive properties (in words) (powders, control reference): no bioadhesive properties
